Test results from PubChem BioAssay AID208 (DTP/NCI, 2004).
Values joined by “and” are separate entries in the source; they are usually repeats but may differ in a detail not shown here. Identical values can stand only once. Inconclusive results are not listed. *1 amine or outer side, *2 acyl side, *3 side chain or, on linkers, in order; H or OH if unused. Where a SMILES comes first, the peptide text is derived from it. Bridges are numbered along the chain shown (N, C = ends). Roman numbers before positions name the chains, in order. [ ]: non-standard residue; d: D form. Actinocin(9to1) = Cc1c2oc3c(C)ccc(C(=O)[*:1])c3nc-2c(C(=O)[*:2])c(N)c1=O; aThr = C[C@H](O)[C@H](N)C(=O)O; NMeV = CN[C@H](C(=O)O)C(C)C; Sar = CNCC(=O)O

Tested on: HT29 intrarenal xenograft, nude mice, tumor weight change
Assay: NCI In Vivo Anticancer Drug Screen. Data for tumor model HT29;CX-1 Human Adenocarcinoma (MER+) (intrarenal inoculation) in NU/NU BALB/C (nude) mice
Settings: endpoint: mean tumor weight change, higher = larger tumour
Method: The antitumor activity of compounds was measured in mice bearing transplantable tumors. Survival or tumor size were measured and the results are expressed as the measurement made in the treated group (T) divided by the measurement made in the vehicle treated control group (C). The tumor model used in this assay is HT29;CX-1 Human Adenocarcinoma (MER+) (intrarenal inoculation) in NU/NU BALB/C (nude) mice

[1] = dose: 100.0 mg/kg/injection, schedule: Q04DX004 (sc), vehicle: saline
[2] = dose: 50.0 mg/kg/injection, schedule: Q01DX010 (sc), vehicle: saline
[3] = dose: 100.0 mg/kg/injection, schedule: Q01DX010 (sc), vehicle: saline
[4] = dose: 200.0 mg/kg/injection, schedule: Q04DX004 (sc), vehicle: saline with Tween-80

CC1(C)COCN1COCCOCN1COCC1(C)C
T/C (dose: 50.0 mg/kg/injection, schedule: Q04DX004 (sc), vehicle: saline): 66 % of control
T/C [1]: 122 % of control
T/C (dose: 200.0 mg/kg/injection, schedule: Q04DX004 (sc), vehicle: saline): 58 % of control
T/C (dose: 400.0 mg/kg/injection, schedule: Q04DX004 (sc), vehicle: saline): 122 % of control

CC[As](=O)(O)CC
T/C [1]: 61 % of control

CN(C)c1nc(N(C)C)nc(N(C)C)n1
T/C (dose: 12.5 mg/kg/injection, schedule: Q01DX010 (sc), vehicle: saline with Tween-80): 99 % of control
T/C (dose: 50.0 mg/kg/injection, schedule: Q01DX010 (sc), vehicle: saline with Tween-80): 79 % of control
T/C (dose: 100.0 mg/kg/injection, schedule: Q01DX010 (sc), vehicle: saline with Tween-80): 72 % of control

CC1(C)CC2(C)OC2C2(C1)N=NC(=Nc1ccccc1)O2 (configuration not stated)
T/C (dose: 75.0 mg/kg/injection, schedule: Q04DX004 (sc), vehicle: saline with Tween-80): 16 % of control
T/C (dose: 150.0 mg/kg/injection, schedule: Q04DX004 (sc), vehicle: saline with Tween-80): 124 % of control
T/C (dose: 300.0 mg/kg/injection, schedule: Q04DX004 (sc), vehicle: saline with Tween-80): 89 % of control
T/C (dose: 600.0 mg/kg/injection, schedule: Q04DX004 (sc), vehicle: saline with Tween-80): 69 % of control

CC1=C(O)C(=O)[C@@H]2O[C@@H]2C1=O
T/C (dose: 37.5 mg/kg/injection, schedule: Q04DX004 (sc), vehicle: saline): 60 % of control

CCn1cnc2c(=S)nc[nH]c21
T/C (dose: 150.0 mg/kg/injection, schedule: Q04DX004 (sc), vehicle: saline): 175 % of control

CCCCCCCC(=O)OCC(=O)[C@]1(O)Cc2c(O)c3c(c(O)c2[C@@H](OC2CC(N)C(O)C(C)O2)C1)C(=O)c1c(OC)cccc1C3=O (some centres not stated)
T/C (dose: 2.0 mg/kg/injection, schedule: Q04DX004 (sc), vehicle: saline): 63 % of control
T/C (dose: 4.0 mg/kg/injection, schedule: Q04DX004 (sc), vehicle: saline): 78 % of control
T/C (dose: 8.0 mg/kg/injection, schedule: Q04DX004 (sc), vehicle: saline): 48 % of control
T/C (dose: 16.0 mg/kg/injection, schedule: Q04DX004 (sc), vehicle: saline): 30 % of control

O=C(O)CC(NC(=O)CP(=O)(O)O)C(=O)O (configuration not stated)
T/C (dose: 25.0 mg/kg/injection, schedule: Q01DX010 (sc), vehicle: saline): 123 % of control
T/C [2]: 94 % of control
T/C [3]: 91 % of control
T/C (dose: 200.0 mg/kg/injection, schedule: Q01DX010 (sc), vehicle: saline): 70 % of control

O=CC(NC(=O)N(CCCl)N=O)C(O)C(O)C(O)CO (configuration not stated)
T/C (dose: 1.5 mg/kg/injection, schedule: Q01DX010 (sc), vehicle: Klucel (hydroxypropylcellulose) (HPC)): 45 % of control
T/C (dose: 3.0 mg/kg/injection, schedule: Q01DX010 (sc), vehicle: Klucel (hydroxypropylcellulose) (HPC)): 42 % of control
T/C (dose: 6.0 mg/kg/injection, schedule: Q01DX010 (sc), vehicle: Klucel (hydroxypropylcellulose) (HPC)): 35 % of control

CO[C@H]1C[C@@H]2CC[C@@H](C)[C@@](O)(O2)C(=O)C(=O)N2CCCC[C@H]2C(=O)O[C@H]([C@H](C)C[C@@H]2CC[C@@H](O)[C@H](OC)C2)CC(=O)[C@H](C)C=C(C)[C@@H](O)[C@@H](OC)C(=O)[C@H](C)C[C@H](C)/C=C/C=C/C=C1C
T/C (dose: 200.0 mg/kg/injection, schedule: Q01DX010 (sc), vehicle: saline with Tween-80): 84 % of control
T/C (dose: 400.0 mg/kg/injection, schedule: Q01DX010 (sc), vehicle: saline with Tween-80): 40 % of control
T/C (dose: 800.0 mg/kg/injection, schedule: Q01DX010 (sc), vehicle: saline with Tween-80): 59 % of control
T/C (dose: 1600.0 mg/kg/injection, schedule: Q01DX010 (sc), vehicle: saline with Tween-80): 25 % of control

C[C@]12CCC(=O)C(O)=C1CC[C@@H]1[C@@H]2CC[C@]2(C)C(=O)CC[C@@H]12
T/C (dose: 150.0 mg/kg/injection, schedule: Q04DX004 (ip), vehicle: Klucel (hydroxypropylcellulose) (HPC)): 84 % of control
T/C (dose: 300.0 mg/kg/injection, schedule: Q04DX004 (ip), vehicle: Klucel (hydroxypropylcellulose) (HPC)): 94 % of control
T/C (dose: 600.0 mg/kg/injection, schedule: Q04DX004 (ip), vehicle: Klucel (hydroxypropylcellulose) (HPC)): 67 % of control
T/C (dose: 1200.0 mg/kg/injection, schedule: Q04DX004 (ip), vehicle: Klucel (hydroxypropylcellulose) (HPC)): 84 % of control

NC(=S)N/N=C/c1ccc(O)cn1
T/C [4]: 75 % of control

COc1cc([C@@H]2c3cc4c(cc3[C@@H](OC3OC5CO[C@@H](c6cccs6)OC5C(O)C3O)[C@H]3COC(=O)[C@H]23)OCO4)cc(OC)c1O (some centres not stated)
T/C (dose: 8.0 mg/kg/injection, schedule: Q01DX010 (sc), vehicle: saline): 225 % of control
T/C (dose: 16.0 mg/kg/injection, schedule: Q01DX010 (sc), vehicle: saline): 221 % of control
T/C (dose: 32.0 mg/kg/injection, schedule: Q01DX010 (sc), vehicle: saline): 189 % of control
T/C (dose: 33.0 mg/kg/injection, schedule: Q01DX010 (sc), vehicle: saline): 191 % of control
T/C (dose: 66.0 mg/kg/injection, schedule: Q01DX010 (sc), vehicle: saline): 60 % of control
T/C (dose: 132.0 mg/kg/injection, schedule: Q01DX010 (sc), vehicle: saline): 151 % of control
T/C (dose: 264.0 mg/kg/injection, schedule: Q01DX010 (sc), vehicle: saline): 38 % of control

COc1cc(C2c3cc4c(cc3C(O)C(CO)C2CO)OCO4)cc(OC)c1OC (configuration not stated)
T/C [4]: 72 % of control
T/C (dose: 400.0 mg/kg/injection, schedule: Q04DX004 (sc), vehicle: saline with Tween-80): 49 % of control
T/C (dose: 800.0 mg/kg/injection, schedule: Q04DX004 (sc), vehicle: saline with Tween-80): 96 % of control
T/C (dose: 1600.0 mg/kg/injection, schedule: Q04DX004 (sc), vehicle: saline with Tween-80): 30 % of control

Cc1ccc(S(=O)(=O)N/N=C/C(=O)O)cc1
T/C (dose: 100.0 mg/kg/injection, schedule: Q01DX010 (sc), vehicle: Klucel (hydroxypropylcellulose) (HPC)): 87 % of control
T/C (dose: 200.0 mg/kg/injection, schedule: Q01DX010 (sc), vehicle: Klucel (hydroxypropylcellulose) (HPC)): 50 % of control
T/C (dose: 400.0 mg/kg/injection, schedule: Q01DX010 (sc), vehicle: Klucel (hydroxypropylcellulose) (HPC)): 96 % of control
T/C (dose: 800.0 mg/kg/injection, schedule: Q01DX010 (sc), vehicle: Klucel (hydroxypropylcellulose) (HPC)): 106 % of control

CN=C(NC#N)NCCSCc1nc[nH]c1C
T/C (dose: 225.0 mg/kg/injection, schedule: Q04DX004 (sc), vehicle: Klucel (hydroxypropylcellulose) (HPC)): 75 % of control
T/C (dose: 450.0 mg/kg/injection, schedule: Q04DX004 (sc), vehicle: Klucel (hydroxypropylcellulose) (HPC)): 99 % of control
T/C (dose: 900.0 mg/kg/injection, schedule: Q04DX004 (sc), vehicle: Klucel (hydroxypropylcellulose) (HPC)): 92 % of control

O.O.[NH-]C1CCCCC1[NH-].[Pt+2] (configuration not stated)
T/C (dose: 5.0 mg/kg/injection, schedule: Q01DX010 (sc), vehicle: dextrose): 98 % of control
T/C (dose: 10.0 mg/kg/injection, schedule: Q01DX010 (sc), vehicle: dextrose): 75 % of control
T/C (dose: 20.0 mg/kg/injection, schedule: Q01DX010 (sc), vehicle: dextrose): 34 % of control
T/C (dose: 40.0 mg/kg/injection, schedule: Q01DX010 (sc), vehicle: dextrose): 19 % of control

O=c1[nH]c(=O)n([C@H]2CCCO2)cc1F
T/C (dose: 46.4 mg/kg/injection, schedule: Q01DX010 (ip), vehicle: Klucel (hydroxypropylcellulose) (HPC)): 41 % of control
T/C (dose: 69.8 mg/kg/injection, schedule: Q01DX010 (ip), vehicle: Klucel (hydroxypropylcellulose) (HPC)): 68 % of control
T/C (dose: 104.6 mg/kg/injection, schedule: Q04DX004 (ip), vehicle: Klucel (hydroxypropylcellulose) (HPC)): 61 % of control
T/C (dose: 157.4 mg/kg/injection, schedule: Q04DX004 (ip), vehicle: Klucel (hydroxypropylcellulose) (HPC)): 40 % of control
T/C (dose: 157.8 mg/kg/injection, schedule: Q01DX010 (ip), vehicle: Klucel (hydroxypropylcellulose) (HPC)): 31 % of control
T/C (dose: 236.7 mg/kg/injection, schedule: Q04DX004 (ip), vehicle: Klucel (hydroxypropylcellulose) (HPC)): 53 % of control

Cc1c2oc3c(C)ccc(C(=O)N[C@@H]4C(=O)N[C@H](C(C)C)C(=O)N5CCC[C@H]5C(=O)N(C)CC(=O)N(C)[C@@H](C(C)C)C(=O)O[C@H]4C)c3nc-2c(C(=O)N[C@@H]2C(=O)N[C@H](C(C)C)C(=O)N3CCC[C@H]3C(=O)N(C)CC(=O)N(C)[C@@H](C(C)C)C(=O)O[C@H]2C)c(N)c1=O (I: [aThr][dV]P[Sar][NMeV] / II: [aThr][dV]P[Sar][NMeV]; ester I:1-I:C, II:1-II:C; linker I:N-II:N via Actinocin(9to1))
T/C (dose: 0.03 mg/kg/injection, schedule: Q04DX004 (ip), vehicle: saline): 77 % of control
T/C (dose: 0.05 mg/kg/injection, schedule: Q04DX004 (ip), vehicle: saline): 77 % of control
T/C (dose: 0.08 mg/kg/injection, schedule: Q04DX004 (ip), vehicle: saline): 97 % of control

NC1(C(=O)O)CCCC1
T/C [2]: 37 % of control and 40 % of control
T/C [3]: 12 % of control and 22 % of control
